Experimental data taken from publication PMC7179297, “Preclinical Antimalarial Combination Study of M5717, a Plasmodium falciparum Elongation Factor 2 Inhibitor, and Pyronaridine, a Hemozoin Formation Inhibitor” (Antimicrobial Agents and Chemotherapy, 2020).

Test system: P. falciparum NF54 strain
Assay: [3H]hypoxanthine incorporation assay, individual drugs
Assay type: cell-based
Conditions: Plasmodium falciparum, 72 h
Protocol: IC50 and drug interaction studies were performed as previously described ([27], [28]). […] Cultures were harvested onto glass fiber filters, washed, and the radioactivity was counted using a MicroBetaplate liquid scintillation counter and recorded as counts per minute (cpm) per well. Results are expressed as a percentage of the untreated controls (see the supplemental material for more details). page 2: 25 In vitro isobolograms 26 Compounds were tested against intraerythrocytic forms of P. falciparum derived from asynchronous stock cultures 27 of lab strain NF54 (Schiphol airport strain of unknown origin), as previously described.i,ii The culture medium was […] 29 mM HEPES, 25 mM NaHCO3 (pH 7.3), 0.36 mM hypoxanthine and 100 μg/mL neomycin. Human type A+ 30 erythrocytes served as host cells. […] 31 in humidified modular chambers. Testing of the individual drugs was carried out in 96-well microtiter plates. The 32 compounds were dissolved in DMSO (10 mg/mL), prediluted in hypoxanthine-free culture medium and titrated in […] After addition of an equal volume of parasite culture with a parasitemia of […] Parasite growth was measured by the incorporation of radiolabelled [3H]hypoxanthine (0.25 µCi in […] 37 assay duration) prior to the termination of the test. Cultures were harvested onto glass-fiber filters and washed with 38 distilled water. The radioactivity was counted using a MicroBetaplate liquid scintillation counter (Wallac, Zürich, 39 Switzerland) and the results recorded as counts per minute (cpm) per well at each drug concentration and expressed 40 as percentage of the untreated controls. Fifty percent inhibitory concentrations (IC50) were determined by linear 41 interpolation.v 42 43 For data interpretation, the IC50s of the drugs in combination were expressed as fractions of the IC50s of the drugs 44 alone. These fractions were called “Fractional Inhibitory Concentrations” (FIC) for drug A and for drug B, 45 respectively. 46 FIC Drug A = IC50 A (B) IC50 A […] 49 50 Formulation 51 Pyronaridine (tetraphosphate salt) and […] (succinate salt) were solubilized in a vehicle consisting of 70% […] 54 55 2

EC50 [nM]	SMILES
0.4	O=C1C(O)=C([C@H]2CC[C@H](c3ccc(Cl)cc3)CC2)C(=O)c2ccccc21 [atovaquone]
5500	[H]/N=C(\N/C(=N/[H])Nc1ccc(Cl)cc1)NC(C)C [proguanil]
